Laboratory results from US7968098B2, “HLA-A24-binding KIF-derived peptide” (Kurume University, priority 2006, dated 2011).

Tested on: anti-peptide immunoglobulin G (IgG) in plasma
Experiment: Anti-peptide IgG in plasma measured by the Luminex system
Format: binding, human
Conditions: for Positive cases/total cases, Patients: Table 3, IgGs reactive to peptide in plasma of glioma patients; for Positive cases/total cases, Healthy donors: Table 3, IgGs reactive to peptide in plasma of healthy donors; for Positive cases/total cases, Total: Table 3, patients plus healthy donors; for Total (IgG-positive cases/total cases): positive = >1.25 times no peptide control
Description: The levels of anti-peptide immunoglobulin G (IgG) were measured by the Luminex™ system as previously reported (Komatsu N et al, Scand J Clin Invest 2004; 64: 1-11). In brief, plasma was incubated with 25 μl of peptide-coupled color-coded beads (Luminex Corp., Austin, Tex., USA) for 2 h at room temperature on a plate shaker. After incubation, the mixture was washed with a vacuum manifold apparatus and incubated with 100 μl of biotinylated goat anti-human IgG (BA-3080, Vector Laboratories, Burlingame, Calif., USA) for 1 h at room temperature. The plate was then washed, and 100 μl of streptavidin-PE (S-866, Molecular Probes, Eugene, Oreg., USA) was added to each well and was incubated for 30 min at room temperature on a plate shaker. The bound beads were washed three times followed by the addition of 100 μl of Tween-PBS to each well. Fifty μl of each sample was then examined using the Luminex™ system.
Next, the abilities of the KIF-derived peptides to be recognized by IgGs of glioma patients were examined, because IgGs reactive to CTL-directed peptides are detectable in the plasma of patients with different types of cancer (Nakatsura T et al, Eur J Immunol 32: 826-836, 2002), along with that levels of IgG well correlated with clinical responses of patients who received peptide vaccination as reported previously (Mine T et al, Clin Cancer Res 10: 929-937, 2004; Yajima N et al, Clin Cancer Res 11: 5900-5911, 2005). IgGs reactive to a corresponding peptide were judged to be significant when the immunofluorescence intensity in 1:100-diluted plasma exceeded 1.25 times that of the control samples with no peptides. […] Based on these findings, these 8 KIF peptides (3 for KIF1C, 3 for KIF3C, and 2 for KIF21B) were the focus of the following experiments.

[1] = Healthy donor 1, 1:100-diluted plasma
[2] = Healthy donor 2, 1:100-diluted plasma
[3] = Healthy donor 3, 1:100-diluted plasma
[4] = Healthy donor 4, 1:100-diluted plasma
[5] = Healthy donor 5, 1:100-diluted plasma
[6] = Healthy donor 6, 1:100-diluted plasma
[7] = Healthy donor 7, 1:100-diluted plasma
[8] = Healthy donor 8, 1:100-diluted plasma
[9] = Healthy donor 9, 1:100-diluted plasma
[10] = glioma Patient 1, 1:100-diluted plasma
[11] = glioma Patient 2, 1:100-diluted plasma
[12] = glioma Patient 3, 1:100-diluted plasma
[13] = glioma Patient 4, 1:100-diluted plasma
[14] = glioma Patient 5, 1:100-diluted plasma
[15] = glioma Patient 6, 1:100-diluted plasma
[16] = glioma Patient 7, 1:100-diluted plasma
[17] = glioma Patient 8, 1:100-diluted plasma
[18] = glioma Patient 9, 1:100-diluted plasma
[19] = glioma Patient 10, 1:100-diluted plasma

With AFIPGRPML (KIF21B 670-678 peptide) the “Positive cases/total cases, Patients” value was 2/10, the “Positive cases/total cases, Healthy donors” value was 2/10 and the “Positive cases/total cases, Total” value was 4/20.

With AFIPGRPMLL (KIF21B 670-679 peptide) the “Positive cases/total cases, Patients” value was 2/10, the “Positive cases/total cases, Healthy donors” value was 2/10 and the “Positive cases/total cases, Total” value was 4/20.

Work on CYEVALADF (KIF1C 756-764 peptide) yielded an Immunofluoresence intensity [1] of 87.3, an Immunofluoresence intensity [2] of 14.0 and an Immunofluoresence intensity [3] of 46.8. For the same sequence, the Immunofluoresence intensity [4] was 20.0, the Immunofluoresence intensity [5] was 40.3 and the Immunofluoresence intensity [6] was 47.5. For the same sequence, the Immunofluoresence intensity [7] was 196.0, the Immunofluoresence intensity [8] was 3893.5 and the Immunofluoresence intensity [9] was 27.0. The “Total (IgG-positive cases/total cases)” value (Table 2, glioma patients) was 0/10, the “Total (IgG-positive cases/total cases)” value (Table 2, healthy donors) was 1/10 and the “Positive cases/total cases, Patients” value was 0/10. The “Positive cases/total cases, Healthy donors” value was 1/10, the “Positive cases/total cases, Total” value was 1/20 and the Immunofluoresence intensity [10] was 36.5. The Immunofluoresence intensity [11] was 45.0, the Immunofluoresence intensity [12] was 28.8 and the Immunofluoresence intensity [13] was 11.5. The Immunofluoresence intensity [14] was 58.0, the Immunofluoresence intensity [15] was 185.8 and the Immunofluoresence intensity [16] was 40.3. The Immunofluoresence intensity [17] was 6.5, the Immunofluoresence intensity [18] was 7.5 and the Immunofluoresence intensity [19] was 658.0.

For EYIRVRQDL (KIF3C 607-615 peptide), the “Positive cases/total cases, Patients” value was 2/10, the “Positive cases/total cases, Healthy donors” value was 3/10 and the “Positive cases/total cases, Total” value was 5/20.

In the case of GYLIIENFI (KIF3C 629-637 peptide), the “Positive cases/total cases, Patients” value is reported as 0/10, the “Positive cases/total cases, Healthy donors” value is reported as 1/10 and the “Positive cases/total cases, Total” value is reported as 1/20.

IYQEEIRDL (KIF3C 147-155 peptide) was tested, and the “Positive cases/total cases, Patients” value was 0/10, the “Positive cases/total cases, Healthy donors” value was 1/10 and the “Positive cases/total cases, Total” value was 1/20.

For IYQEEIRDLL (KIF3C 147-156 peptide), the “Positive cases/total cases, Patients” value was 0/10, the “Positive cases/total cases, Healthy donors” value was 1/10 and the “Positive cases/total cases, Total” value was 1/20.

In the case of KYCSHSGLVF (KIF21B 473-482 peptide), the “Positive cases/total cases, Patients” value is reported as 2/10, the “Positive cases/total cases, Healthy donors” value is reported as 2/10 and the “Positive cases/total cases, Total” value is reported as 4/20.

Work on NYEETLSTL (KIF1C 331-339 peptide) yielded an Immunofluoresence intensity [1] of 70.0, an Immunofluoresence intensity [2] of 13.5 and an Immunofluoresence intensity [3] of 29.0. It also gave an Immunofluoresence intensity [4] of 16.5, an Immunofluoresence intensity [5] of 35.0 and an Immunofluoresence intensity [6] of 40.0. The Immunofluoresence intensity [7] was 233.0, the Immunofluoresence intensity [8] was 4133.0 and the Immunofluoresence intensity [9] was 22.5. The Immunofluoresence intensity (Healthy donor 10, 1:100-diluted plasma) was 62.5, the “Total (IgG-positive cases/total cases)” value (Table 2, glioma patients) was 0/10 and the “Total (IgG-positive cases/total cases)” value (Table 2, healthy donors) was 0/10. The “Positive cases/total cases, Patients” value was 0/10, the “Positive cases/total cases, Healthy donors” value was 0/10 and the “Positive cases/total cases, Total” value was 0/20. For the same sequence, the Immunofluoresence intensity [10] was 33.5, the Immunofluoresence intensity [11] was 39.5 and the Immunofluoresence intensity [12] was 22.0. The Immunofluoresence intensity [13] was 10.5, the Immunofluoresence intensity [14] was 53.5 and the Immunofluoresence intensity [15] was 86.5. For the same sequence, the Immunofluoresence intensity [16] was 35.5, the Immunofluoresence intensity [17] was 8.5 and the Immunofluoresence intensity [18] was 5.5. For the same sequence, the Immunofluoresence intensity [19] was 485.4.

NYVPGLTPCL (KIF21B 731-740 peptide) was tested, and the “Positive cases/total cases, Patients” value was 1/10, the “Positive cases/total cases, Healthy donors” value was 1/10 and the “Positive cases/total cases, Total” value was 2/20.

With QYLVRASYL (KIF3C 137-145 peptide) the “Positive cases/total cases, Patients” value was 2/10, the “Positive cases/total cases, Healthy donors” value was 1/10 and the “Positive cases/total cases, Total” value was 3/20.
